Measurements: ChEMBL document CHEMBL1201862, “PubChem BioAssay data set” (2004)
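Growth conditions: 96-well plates. Treatment: test compound, 48 hours, 5 concentrations. Analysis: linear interpolation between bracketing concentrations; unreached endpoints set to highest concentration. GI50: concentration for 50% inhibition of growth.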 Active and inactive are the calls of the source. No stated cut-off is given here; in the data, active = GI50 up to about 1.1 µM and inactive = higher. Where a SMILES comes first, the peptide text is derived from it. The star is where a group is joined. Boc = CC(C)(C)OC(=O)*

Key:
Test in all cases: DTP human tumour cell line panel, 48 h
ACHN = test system: ACHN
CCRF-CEM = test system: CCRF-CEM
HCT-116 = test system: HCT-116
HOP-62 = test system: HOP-62
IGROV-1 = test system: IGROV-1
KM12 = test system: KM12
M14 = test system: M14
NCI-H23 = test system: NCI-H23
OVCAR-8 = test system: OVCAR-8
RXF 393 = test system: RXF 393
SF-295 = test system: SF-295
SK-MEL-28 = test system: SK-MEL-28
SNB-75 = test system: SNB-75
SW-620 = test system: SW-620
TK-10 = test system: TK-10
U-251 = test system: U-251
UACC-62 = test system: UACC-62
HOP-92 = test system: HOP-92
SK-MEL-2 = test system: SK-MEL-2
A498 = test system: A498

Measured: GI50

CN1CN(c2ccccc2)C2(CCN(CCCC(=O)c3cccs3)CC2)C1=O
inactive: ACHN 40.2 µM | CCRF-CEM 30.3 µM | HCT-116 30.1 µM | HOP-62 19.3 µM | IGROV-1 41.3 µM | KM12 75.7 µM | M14 95.5 µM | NCI-H23 51.2 µM | OVCAR-8 55.8 µM | RXF 393 > 100 µM | SF-295 33 µM | SK-MEL-28 > 100 µM | SNB-75 > 100 µM | SW-620 42.2 µM | TK-10 27.7 µM | U-251 45.7 µM | UACC-62 > 100 µM

CC1(c2nc3ccccc3[nH]2)CCC(C#N)C(C)(C)O1 (stereo not drawn)
inactive: ACHN > 100 µM | CCRF-CEM > 100 µM | HCT-116 > 100 µM | HOP-62 > 100 µM | HOP-92 > 100 µM | IGROV-1 > 100 µM | KM12 7.74 µM | M14 > 100 µM | NCI-H23 > 100 µM | OVCAR-8 > 100 µM | RXF 393 > 100 µM | SF-295 > 100 µM | SK-MEL-28 > 100 µM | SK-MEL-2 > 100 µM | SNB-75 > 100 µM | SW-620 > 100 µM | TK-10 > 100 µM | U-251 > 100 µM | UACC-62 > 100 µM

COC(=O)[C@H](Cc1ccc(O)cc1)NC(=O)[C@H](Cc1ccc(O)cc1)NC(=O)OC(C)(C)C (Boc-Tyr-Tyr-OMe)
inactive: ACHN > 100 µM | HCT-116 > 100 µM | HOP-62 > 100 µM | IGROV-1 56.6 µM | KM12 > 100 µM | M14 > 100 µM | NCI-H23 > 100 µM | OVCAR-8 66.4 µM | RXF 393 49.7 µM | SF-295 > 100 µM | SNB-75 > 100 µM | TK-10 > 100 µM | UACC-62 > 100 µM

Oc1cc(O)c2c(c1)O[C@H](c1ccc(O)c(O)c1)[C@@H](O)C2 [CIANIDANOL]
inactive: ACHN > 100 µM | CCRF-CEM > 100 µM | HCT-116 > 100 µM | HOP-62 > 100 µM | HOP-92 > 100 µM | IGROV-1 > 100 µM | KM12 > 100 µM | M14 > 100 µM | NCI-H23 > 100 µM | OVCAR-8 > 100 µM | SF-295 > 100 µM | SK-MEL-28 > 100 µM | SK-MEL-2 > 100 µM | SNB-75 > 100 µM | SW-620 > 100 µM | TK-10 > 100 µM | U-251 > 100 µM

COc1cccc(/C=C2\C(=O)N(C(=O)Cc3ccccc3)N=C2C)c1
inactive: ACHN > 100 µM | CCRF-CEM > 100 µM | HCT-116 > 100 µM | HOP-62 > 100 µM | KM12 > 100 µM | M14 > 100 µM | NCI-H23 > 100 µM | OVCAR-8 > 100 µM | SF-295 > 100 µM | SK-MEL-28 > 100 µM | SK-MEL-2 > 100 µM | SNB-75 > 100 µM | SW-620 > 100 µM | TK-10 > 100 µM | U-251 > 100 µM

C=C1C(=O)O[C@@H]2C[C@@]3(C)[C@H](O)CCC(=C)[C@@H]3C[C@H]12 [ASPERILIN]
inactive: ACHN 14.4 µM | CCRF-CEM 3.01 µM | HCT-116 4.86 µM | HOP-62 17.1 µM | HOP-92 5.13 µM | IGROV-1 20.5 µM | KM12 3.49 µM | M14 3.31 µM | NCI-H23 11.4 µM | OVCAR-8 7.24 µM | SF-295 14.1 µM | SK-MEL-28 7.59 µM | SK-MEL-2 11.6 µM | SNB-75 3.69 µM | SW-620 3.44 µM | TK-10 12.5 µM | U-251 13.4 µM | UACC-62 5.96 µM

C#CCN1C(=O)CN2C(Cl)(Cl)C2(c2ccccc2)c2cc(Cl)ccc21 (stereo not drawn)
inactive: ACHN 85.9 µM | CCRF-CEM 44.3 µM | HCT-116 42.2 µM | HOP-62 50 µM | HOP-92 61.8 µM | KM12 28.6 µM | M14 49.1 µM | NCI-H23 86.7 µM | OVCAR-8 > 100 µM | RXF 393 > 100 µM | SF-295 65.8 µM | SK-MEL-28 > 100 µM | SK-MEL-2 94.4 µM | SNB-75 > 10 µM | SW-620 70.3 µM | TK-10 89.9 µM | U-251 > 10 µM

CCCc1cc(=O)oc2c3c(c4c(c12)OC(C)(C)CC4)O[C@@H](C)[C@H](C)[C@H]3O
inactive: CCRF-CEM 3.98 µM | HCT-116 8.89 µM | HOP-62 14.9 µM | HOP-92 13.6 µM | IGROV-1 16.1 µM | KM12 12.4 µM | M14 11.8 µM | NCI-H23 12.2 µM | OVCAR-8 13.3 µM | RXF 393 11.3 µM | SF-295 13.5 µM | SK-MEL-28 15.6 µM | SK-MEL-2 14.6 µM | SNB-75 10.3 µM | SW-620 15 µM | U-251 11.8 µM | UACC-62 9.02 µM

C=Cc1cnc([N+](=O)[O-])n1C
inactive: A498 34.3 µM | ACHN 52 µM | CCRF-CEM 46.1 µM | HCT-116 57.1 µM | HOP-62 92 µM | HOP-92 35.8 µM | KM12 36.2 µM | M14 65.5 µM | NCI-H23 98.9 µM | OVCAR-8 > 100 µM | SF-295 35.2 µM | SK-MEL-28 72.1 µM | SW-620 62.1 µM | TK-10 36.1 µM | U-251 > 100 µM

CCOC(=O)CC[C@H](NC(=O)c1nc[nH]c1/N=N/N(C)C)C(=O)OCC
inactive: A498 > 100 µM | ACHN > 100 µM | CCRF-CEM > 100 µM | HCT-116 > 100 µM | HOP-62 > 100 µM | IGROV-1 > 100 µM | KM12 > 100 µM | M14 > 100 µM | NCI-H23 > 100 µM | OVCAR-8 > 100 µM | SF-295 > 100 µM | SK-MEL-28 > 100 µM | SK-MEL-2 > 100 µM | SW-620 > 100 µM | U-251 > 100 µM | UACC-62 > 100 µM

CCC1=CCN(c2ccc(C)cc2)OC1c1ccc(OC)cc1 (stereo not drawn)
inactive: ACHN > 100 µM | CCRF-CEM 56.6 µM | HCT-116 59.6 µM | HOP-62 > 100 µM | IGROV-1 > 100 µM | KM12 > 100 µM | M14 52.6 µM | NCI-H23 39.7 µM | OVCAR-8 > 100 µM | RXF 393 69.7 µM | SF-295 92.7 µM | SK-MEL-28 50.2 µM | SK-MEL-2 32.3 µM | SNB-75 > 100 µM | SW-620 > 100 µM | TK-10 > 100 µM | U-251 73.3 µM | UACC-62 > 100 µM

COc1ccc2c(c1)OCCC1=C2SCC2(C)CCN=C12 (stereo not drawn)
inactive: CCRF-CEM > 100 µM | HCT-116 > 100 µM | HOP-62 > 100 µM | IGROV-1 > 100 µM | KM12 > 100 µM | M14 > 100 µM | NCI-H23 61.7 µM | OVCAR-8 > 100 µM | RXF 393 > 100 µM | SF-295 > 100 µM | SK-MEL-28 > 100 µM | SNB-75 > 100 µM | SW-620 > 100 µM | TK-10 > 100 µM | U-251 > 100 µM | UACC-62 > 100 µM
